Converted amounts (≈) assume the structure as drawn. Like-named read-outs stand apart in the source and are kept apart here.

We go through four compounds from patent EP1184030A1, “Antibacterial composition comprising trimethylnorbornanylcyclohexanol derivatives” (Givaudan SA, priority 2000, dated 2002).

The test system of one data set is Corynebacteria. Kind of data set: MIC microtiter plate test, Corynebacteria. Type of data set: cell-based. An excerpt:
The different bacterial strains had been isolated from the human axilla by current microbiological practice. They were taxonomically identified by cell morphology, gram-reaction and biochemical tests included in the Api coryne test kit (BioMerieux, France). Strain Staphylococcus epidermidis Ax25 was identified by fatty acid methyl ester analysis (FAME; German type strain collection DSMZ, Germany). The strains were maintained on Tryptic soy broth plates, this standard medium being amended with 5 g per Litre of Tween 80 and 1 g of Soybean lecithin. Plates were incubated at 36° C for a period 48 hours. The bacteria were then swabbed from the plates and suspended in 4 ml of Müller-Hinton broth amended with 100 mg of Tween80 per Litre (MH-Tween) and incubated again at 36° C for 16 hours. Following incubation the bacterial suspensions were diluted in MH-Tween to obtain a final cell density of 10^6 colony forming units per ml. For each fragrance material four microtiter plates were used in the example, each microtiter plate having 8 rows, A-H, and 12 columns, 1-12. […]
Since sandela is known to be a mixture of different reaction products, commercial sandela was subjected to a distillation process. […] The different fractions were evaluated for their antimicrobial activity (Table 6) with the method described in example 1. […]

Data set [1] has as its system Ax 20 Corynebacterium striatum/amycolatum. Kind of data set: MIC microtiter plate test, axilla bacteria. The note with it: Corynebacterium striatum, read-out: Minimal inhibitory concentration (MIC). Type of data set: cell-based. An excerpt: (§1) The different bacterial strains had been isolated from the human axilla by current microbiological practice. They were taxonomically identified by cell morphology, gram-reaction and biochemical tests included in the Api coryne test kit (BioMerieux, France). Strain Staphylococcus epidermidis Ax25 was identified by fatty acid methyl ester analysis (FAME; German type strain collection DSMZ, Germany). The strains were maintained on Tryptic soy broth plates, this standard medium being amended with 5 g per Litre of Tween 80 and 1 g of Soybean lecithin. Plates were incubated at 36° C for a period 48 hours. The bacteria were then swabbed from the plates and suspended in 4 ml of Müller-Hinton broth amended with 100 mg of Tween80 per Litre (MH-Tween) and incubated again at 36° C for 16 hours. Following incubation the bacterial suspensions were diluted in MH-Tween to obtain a final cell density of 10^6 colony forming units per ml. For each fragrance material four microtiter plates were used in the example, each microtiter plate having 8 rows, A-H, and 12 columns, 1-12. To each column a diluted suspension of a different test organism was distributed, 100 µl per well. 1% stock solutions of the fragrance materials were then prepared in MH-Tween broth. The fragrance material was dispersed by ultrasonication into the aqueous medium to obtain a homogenous emulsion. 100 µl per well of this emulsion was then added to the first row of the microtiter plates already containing the target organisms. Serial dilution series were then prepared starting at row A and continuing until row G, each time removing 100 µl from a well and transferring it to the next well. In this way fragrance concentrations of 0.5%, 0.25%, 0.125%, 0.0625%, 0.03125%, 0.0156% and 0.0078% were tested for their antibacterial efficacy. The reference compound Triclosan was tested at 16 fold lower concentrations. The plates were covered with plastic films and incubated for 24 h at 36° C with shaking at 250 rpm. The turbidity developing in the microtiter plates was then examined after 24 h to determine microbial growth. The minimal concentration of fragrance inhibiting the growth of an organism by at least 80% was determined as the minimal inhibitory concentration (MIC).
(§2) Ax 25 was identified as Staphylococcus epidermidis by FAME analysis. Identification with the Api Coryne test kit yielded the following species assignments for the remainder of the strains: Ax 26 Corynebacterium sp.; Ax 3 Corynebacterium bovis; Ax 7 Corynebacterium group G; Ax 10 Corynebacterium jeikeium; Ax 11 Corynebacterium jeikeium; Ax 12 Corynebacterium jeikeium; Ax 15 Corynebacterium jeikeium; Ax 20 Corynebacterium striatum/amycolatum; Ax 19 Corynebacterium jeikeium. The strains were isolated from the axilla of 8 human volunteers. Based on biochemical tests and colony morphology all strains were distinct from each other, even the several strains all belonging to Corynebacterium jeikeium.

Data set [2] concerns Ax 26 Corynebacterium sp. Kind of data set: MIC microtiter plate test, axilla bacteria. Type of data set: cell-based. The note with it: for MIC: Corynebacterium; for Bacteriostatic activity (concentration needed for at least 80% reduction in growth): Table 8.
Source text: as §1, §2

For data set [3], the system named is Ax 7 Corynebacterium group G. Kind of data set: MIC microtiter plate test, axilla bacteria. Particulars: for MIC: Corynebacterium; for Bacteriostatic activity (concentration needed for at least 80% reduction in growth): Table 8. Type of data set: cell-based.
Source text: as §1, §2

Data set [4] has as its system Staphylococcus epidermidis Ax25. Kind of data set: MIC microtiter plate test, axilla bacteria. Type of data set: cell-based. Particulars: for MIC: Staphylococcus epidermidis; for Bacteriostatic activity (concentration needed for at least 80% reduction in growth): Table 8.
Source text: as §1, §2

Data set [5] deals with Ax 15 Corynebacterium jeikeium. The data set is described as follows: MIC microtiter plate test, axilla bacteria. Type of data set: cell-based. The note with it: for MIC: Corynebacterium jeikeium; for Bacteriostatic activity (concentration needed for at least 80% reduction in growth): Table 8.
Source text: as §1, §2

Data set [6] concerns Ax 11 Corynebacterium jeikeium. The data set is described as follows: MIC microtiter plate test, axilla bacteria. Type of data set: cell-based. The note with it: Corynebacterium jeikeium, read-out: Minimal inhibitory concentration (MIC).
Source text: as §1, §2

Data set [7] has as its system Ax 3 Corynebacterium bovis. Kind of data set: MIC microtiter plate test, axilla bacteria. The note with it: Corynebacterium bovis, read-out: Minimal inhibitory concentration (MIC). Type of data set: cell-based.
Source text: as §1, §2

Data set [8] has as its system Ax 12 Corynebacterium jeikeium. Kind of data set: MIC microtiter plate test, axilla bacteria. Type of data set: cell-based. The note with it: Corynebacterium jeikeium, read-out: Minimal inhibitory concentration (MIC).
Source text: as §1, §2

In data set [9] the test system is Ax 10 Corynebacterium jeikeium. The data set is described as follows: MIC microtiter plate test, axilla bacteria. Type of data set: cell-based. Particulars: Corynebacterium jeikeium, read-out: Minimal inhibitory concentration (MIC).
Source text: as §1, §2

The next data set in a line: Vapour pressure. Type of data set: physicochemical. An excerpt: Odoriferous substances are by definition volatile compounds which evaporate from the skin and therefore loose their deodorising effect. Furthermore small water-soluble fragrance compounds can get dissolved in sweat and are thus rapidly diluted under conditions of high sweat secretion which further reduces the duration of the deodorising effect. Therefore a low water solubility indicated by a high LogP value and a low volatility indicated by low vapour pressure are desired for odoriferous substances which are used for their antibacterial activity.

In data set [10] the test system is Ax 19 Corynebacterium jeikeium. The data set is described as follows: MIC microtiter plate test, axilla bacteria. Type of data set: cell-based. The note with it: 24 h, read-out: Minimal inhibitory concentration (MIC).
Source text: as §1, §2

[11] abbreviates: Ax26, growth inhibition by at least 80%, 24 h at 36° C, read-out: Minimal inhibitory concentration (MIC).
Where [12] appears, read: Table 7, Corynebact. Ax26, 24 hours, read-out: Bacteriostatic activity (concentration needed for at least 80% reduction in growth).
Where [13] appears, read: 24 h, read-out: Bacteriostatic activity (concentration needed for at least 80% reduction in growth).
Setting [14] is: 24 h, read-out: Minimal inhibitory concentration (MIC).

In the case of `COC1CC(C2CC3CC2C(C)C3(C)C)CCC1O` (centres unmarked) [2-methoxy-4-(5,5,6-trimethylbicyclo[2.2.1]hept-2-yl)cyclohexan-1-ol], the “activity against Corynebacteria” value with Corynebacteria is “highest activity”.
On to `COC1CCC(C2CC3CC2C(C)C3(C)C)CC1O` (centres unmarked) [2-methoxy-5-(5,5,6-trimethyl-bicyclo[2.2.1]hept-2-yl)cyclohexan-1-ol], for which, in the data set on Corynebacteria, the “activity against Corynebacteria” value is recorded as “highest activity”.
For `CC(C)=CCCC(C)=CCCC(C)=CCO` [Farnesol, 3,7,11-trimethyl-2,6,10-dodecatrien-1-ol], the MIC in data set [1] (Ax20, growth inhibition by at least 80%, 24 h at 36° C) was found to be 137 µg/mL (≈ 616 µM); in data set [2] (setting [11]) it was 78 µg/mL (≈ 351 µM); in data set [2] (setting [12]), 78 µg/mL (≈ 351 µM); in data set [3] (Ax7, growth inhibition by at least 80%, 24 h at 36° C, read-out: Minimal inhibitory concentration (MIC)) it was 137 µg/mL (≈ 616 µM); in [3] (Table 7, Corynebact. Ax7, 24 hours, read-out: Bacteriostatic activity (concentration needed for at least 80% reduction in growth)) it was 137 µg/mL (≈ 616 µM); in data set [4] (AX25, Ax 25, growth inhibition by at least 80%, 24 h at 36° C, read-out: Minimal inhibitory concentration (MIC)), 156 µg/mL (≈ 702 µM). The MIC in data set [4] (AX25, Table 7, S. epidermidis, 24 hours, read-out: Bacteriostatic activity (concentration needed for at least 80% reduction in growth)) was 156 µg/mL (≈ 702 µM); in data set [5] (Ax15, growth inhibition by at least 80%, 24 h at 36° C, read-out: Minimal inhibitory concentration (MIC)), 156 µg/mL (≈ 702 µM); in [5] (Table 7, Corynebact. Ax15, 24 hours, read-out: Bacteriostatic activity (concentration needed for at least 80% reduction in growth)) it was 156 µg/mL (≈ 702 µM); in [6] (Ax11, growth inhibition by at least 80%, 24 h at 36° C) it was 195 µg/mL (≈ 877 µM); in data set [7] (Ax3, growth inhibition by at least 80%, 24 h at 36° C), 156 µg/mL (≈ 702 µM); in [8] (Ax12, growth inhibition by at least 80%, 24 h at 36° C), 137 µg/mL (≈ 616 µM). Further, the MIC in data set [9] (Ax10, growth inhibition by at least 80%, 24 h at 36° C) is 78 µg/mL (≈ 351 µM). Moreover, the “Bacteriostatic activity (concentration needed for at least 80% reduction in growth)” value in data set [2] (Corynebact. Ax26, 24 hours) is recorded as 0.0078 percent (w/v); in data set [3] (Corynebact. Ax7, 24 hours), 0.0137 percent (w/v); in data set [4] (S. epidermidis, 24 hours) it was 0.0156 percent (w/v); in [5] (Corynebact. Ax15, 24 hours), 0.0156 percent (w/v). In the data set “Vapour pressure”, this compound came in with a vapour pressure of 1.35 µg/L.
As to `Oc1cc(Cl)ccc1Oc1ccc(Cl)cc1Cl` [Triclosan, 2,4,4'-trichloro-2'-hydroxy-diphenyl-ether], the MIC in [10] worked out at 39 µg/mL (≈ 135 µM); in [1] (24 h), 107 µg/mL (≈ 370 µM); in data set [2] (setting [11]) it was 15 µg/mL (≈ 51.8 µM); in [2] (setting [12]) it was 25 µg/mL (≈ 86.3 µM); in data set [3] (setting [13]) it was 25 µg/mL (≈ 86.3 µM); in data set [3] (setting [14]), 29 µg/mL (≈ 100 µM). Moreover, the MIC in data set [4] (AX25, 24 h, read-out: Bacteriostatic activity (concentration needed for at least 80% reduction in growth)) is 0.15 µg/mL (≈ 0.518 µM); in data set [4] (AX25, 24 h, read-out: Minimal inhibitory concentration (MIC)), 0.15 µg/mL (≈ 0.518 µM); in data set [5] (setting [13]) it was 30 µg/mL (≈ 104 µM); in [5] (setting [14]) it was 29 µg/mL (≈ 100 µM); in data set [6] (24 h), 29 µg/mL (≈ 100 µM); in data set [7] (24 h) it was 29 µg/mL (≈ 100 µM). The MIC in data set [8] (24 h) was found to be 17 µg/mL (≈ 58.7 µM); in [9] (24 h), 20 µg/mL (≈ 69.1 µM). For the same compound, the “Bacteriostatic activity (concentration needed for at least 80% reduction in growth)” value in data set [2] (Corynebact. Ax26, 24 hours) is 0.0025 percent (w/v); in data set [3] (Corynebact. Ax7, 24 hours) it was 0.0025 percent (w/v); in data set [4] (S. epidermidis, 24 hours) it was 0.000015 percent (w/v); in [5] (Corynebact. Ax15, 24 hours) it was 0.0030 percent (w/v).
